Data: US20240299316A1, “METHOD FOR TREATING CANCER WITH A[…] RADIATION” (LANTERN PHARMA INC., priority 2021, published 2024)
“Also recorded” adds a separate entry of the source.

Test system: Panc03.27 xenografts
Assay: Radiation (RT) pretreatment followed by LP-184 in subcutaneous Panc03.27 pancreatic xenografts
Format: in vivo, Mice
Settings: for interaction of radiation with LP-184 on tumor volume (synergy) / mean terminal tumor volume of LP-184+RT group relative to LP-184 alone or RT alone: 4 Gy RT + 3 mg/kg i.p. LP-184, 3 mg/kg; for interaction of radiation with LP-184 on tumor volume (synergy): average tumor volume over days post treatment initiation; for mean terminal tumor volume of LP-184+RT group relative to LP-184 alone or RT alone: p value 0.017
Protocol: Radiation (RT) pretreatment of pancreatic tumors and subsequent (−)-hydroxyureamethyl acylfulvene treatment in vivo, 4 Gy RT was administered once weekly followed the next day by 3 mg/kg i.p. LP-184 in Panc03.27 xenografts for a total of 3 weeks. Mice bearing pre-established subcutaneous. Panc03.27 xenografts were treated with vehicle control, 4 Gy RT alone, 3 mg/kg LP-184 alone or their combination.
A line plot of average tumor volume in cubic millimeters over days post treatment initiation in Panc03.27 subcutaneous xenograft tumors treated with vehicle control (gray circles; N=6) is shown, 4 Gy RT alone (red squares; N=5), 3 mg/kg i.p. LP-184 alone (green triangles; N=6), and RT+LP-184 (blue inverted triangles; N=10). Error bars represent SEM.

CC1=C2C(=CC(C)C2CN(O)C(N)=O)C(=O)[C@](C)(O)C12CC2 (single isomer, unassigned; (-)) [LP-184, (−)-hydroxyureamethyl acylfulvene]
interaction of radiation with LP-184 on tumor volume (synergy): synergized | interaction of radiation with LP-184 on tumor volume (synergy) (listed as hydroxyureamethyl acylfulvene): synergy | mean terminal tumor volume of LP-184+RT group relative to LP-184 alone or RT alone (day 21): statistically significant differences; also recorded: statistically smaller | mean terminal tumor volume of LP-184+RT group relative to LP-184 alone or RT alone (day 21, listed as hydroxyureamethyl acylfulvene): statistically smaller | mean tumor volume, fold lower in LP-184+RT animals compared to LP-184 alone animals (4 Gy RT once weekly followed next day by 3 mg/kg i.p. LP-184, 3 weeks, terminal tumors day 21, p=0.017): ~1.8 fold | comparison of excised xenograft tumors at study termination across treatment arms (LP-184+RT group, day 21, FIG. 3): smallest mean volume | efficacy of combination therapy using post-radiation treatment (post-radiation treatment with LP-184, pancreatic cancer): effective
